Reference: patent US20260285850A1, “SUBSTITUTED OXAZOLIDINONES AND IMIDAZOLINONES AS HERBICIDES” (FMC CORPORATION, priority 2023, published 2026)

Assays:
Assay type in all cases: in vivo
kochia (Bassia scoparia) [1] = assay: Test A postemergence application, visual injury rating 0-100; settings: 10 days
Summary of the method: (§1)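 Compounds formulated in a non-phytotoxic solvent with surfactant are sprayed onto soil of freshly planted loam-sand pots ahead of emergence, or onto emerged plants 2-10 cm tall. After a 10-day greenhouse period, each species is scored visually for injury against untreated controls.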

[2] = test system: wheat (Triticum aestivum); assay: as above; settings: 10 days
Summary of the method: as §1

[3] = test system: barnyardgrass (Echinochloa crus-galli); assay: as above; settings: 10 days
Summary of the method: as §1

[4] = test system: galium (catchweed bedstraw, Galium aparine); assay: as above; settings: 10 days
Summary of the method: as §1

[5] = test system: horseweed (Erigeron canadensis); assay: as above; settings: 10 days
Summary of the method: as §1

[6] = test system: oat, wild (wild oat, Avena fatua); assay: as above; settings: 10 days
Summary of the method: as §1

[7] = test system: ryegrass, Italian (italian ryegrass, Lolium multiflorum); assay: as above; settings: 10 days
Summary of the method: as §1

[8] = test system: blackgrass (Alopecurus myosuroides); assay: as above; settings: 10 days
Summary of the method: as §1

[9] = test system: palmer (palmer amaranth, palmer pigweed, Amaranthus palmeri); assay: as above; settings: 10 days
Summary of the method: as §1

corn (Zea mays) [10] = assay: as above; settings: 10 days
Summary of the method: as §1

[11] = test system: ragweed (common ragweed, Ambrosia artemisiifolia); assay: as above; settings: 10 days
Summary of the method: as §1

[12] = test system: green foxtail (Setaria viridis); assay: as above; settings: 10 days
Summary of the method: as §1

soybean (Glycine max) [13] = assay: as above; settings: 10 days
Summary of the method: as §1

kochia (Bassia scoparia) [14] = assay: Test A preemergence soil spray, visual injury rating 0-100; settings: 10 days, 0 = no effect, 100 = complete control
Summary of the method: as §1

[15] = test system: wheat (Triticum aestivum); assay: as above; settings: 10 days, 0 = no effect, 100 = complete control
Summary of the method: as §1

[16] = test system: barnyardgrass (Echinochloa crus-galli); assay: as above; settings: 10 days, 0 = no effect, 100 = complete control
Summary of the method: as §1

[17] = test system: oat, wild (wild oat, Avena fatua); assay: as above; settings: 10 days, 0 = no effect, 100 = complete control
Summary of the method: as §1

[18] = test system: ryegrass, Italian (italian ryegrass, Lolium multiflorum); assay: as above; settings: 10 days, 0 = no effect, 100 = complete control
Summary of the method: as §1

[19] = test system: blackgrass (Alopecurus myosuroides); assay: as above; settings: 10 days, 0 = no effect, 100 = complete control
Summary of the method: as §1

[20] = test system: palmer (palmer amaranth, palmer pigweed, Amaranthus palmeri); assay: as above; settings: 10 days, 0 = no effect, 100 = complete control
Summary of the method: as §1

corn (Zea mays) [21] = assay: as above; settings: 10 days, 0 = no effect, 100 = complete control
Summary of the method: as §1

[22] = test system: ragweed (common ragweed, Ambrosia artemisiifolia); assay: as above; settings: 10 days, 0 = no effect, 100 = complete control
Summary of the method: as §1

[23] = test system: green foxtail (Setaria viridis); assay: as above; settings: 10 days, 0 = no effect, 100 = complete control
Summary of the method: as §1

soybean (Glycine max) [24] = assay: as above; settings: 10 days, 0 = no effect, 100 = complete control
Summary of the method: as §1

[25] = test system: sedge, umbrella (small-flower umbrella sedge, Cyperus difformis); assay: Test B flooded paddy test, visual plant response rating 0-100; settings: 250 g ai/ha, Flood, applied to paddy water, evaluated after 13 days
Summary of the method: (§2)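 Greenhouse, 13 d. Seedlings at 2-leaf stage, pots flooded to 3 cm, compound delivered into floodwater, water level held constant. Evaluated visually relative to controls.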

[26] = test system: ducksalad (Heteranthera limosa); assay: as above; settings: 250 g ai/ha, Flood, applied to paddy water, evaluated after 13 days
Summary of the method: as §2

[27] = test system: barnyardgrass (Echinochloa crusgalli); assay: as above; settings: 250 g ai/ha, Flood, applied to paddy water, evaluated after 13 days
Summary of the method: as §2

rice (Oryza sativa) = assay: as above; settings: 250 g ai/ha, Flood, applied to paddy water, evaluated after 13 days
Summary of the method: as §2

[28] = 31 g ai/ha, postemergence, 0 = no effect, 100 = complete control
[29] = Postemergence, 125 g ai/ha, 0 is no effect, 100 is complete control

Structure (SMILES): COC(=O)C1C=CC(NC(=O)C2(C)CN(c3cc(F)cc(Cl)c3)C(=O)O2)C1 (stereo not shown) [Compound 17]
- Kochia plant response rating (0-100) (kochia (Bassia scoparia) [1]; [28]): 60
- Kochia plant response rating (0 to 100 scale) (kochia (Bassia scoparia) [1]; [29]): 70
- Wheat plant response rating (0-100) [2, 28]: 90
- Wheat plant response rating (0 to 100 scale) [2, 29]: 90
- Barnyardgrass plant response rating (0-100) [3, 28]: 100
- Barnyardgrass plant response rating (0 to 100 scale) [3, 29]: 100
- Galium plant response rating (0-100) [4, 28]: 80
- Galium plant response rating (0 to 100 scale) [4, 29]: 80
- Horseweed plant response rating (0-100) [5, 28]: 30
- Horseweed plant response rating (0 to 100 scale) [5, 29]: 70
- Oat, Wild plant response rating (0-100) [6, 28]: 90
- Oat, Wild plant response rating (0 to 100 scale) [6, 29]: 90
- Ryegrass, Italian plant response rating (0-100) [7, 28]: 90
- Ryegrass, Italian plant response rating (0 to 100 scale) [7, 29]: 90
- Blackgrass plant response rating (0-100) [8, 28]: 60
- Blackgrass plant response rating (0 to 100 scale) [8, 29]: 90
- Amaranth, Palmer plant response rating (0-100) [9, 28]: 70
- Amaranth, Palmer / Pigweed, Palmer plant response rating (0 to 100 scale) [9, 29]: 90
- Corn plant response rating (0-100) (corn (Zea mays) [10]; [28]): 70
- Corn plant response rating (0 to 100 scale) (corn (Zea mays) [10]; [29]): 100
- Ragweed plant response rating (0-100) [11, 28]: 30
- Ragweed plant response rating (0 to 100 scale) [11, 29]: 80
- Foxtail, Green plant response rating (0-100) [12, 28]: 80
- Foxtail, Green plant response rating (0 to 100 scale) [12, 29]: 90
- Soybean plant response rating (0-100) (soybean (Glycine max) [13]; [28]): 50
- Soybean plant response rating (0 to 100 scale) (soybean (Glycine max) [13]; [29]): 90
- Kochia plant response rating (0-100) (kochia (Bassia scoparia) [14]; 31 g ai/ha): 50
- Kochia plant response rating (0 to 100 scale) (kochia (Bassia scoparia) [14]; 125 g ai/ha): 100
- Wheat plant response rating (0-100) ([15]; 31 g ai/ha): 80
- Wheat plant response rating (0 to 100 scale) ([15]; 125 g ai/ha): 90
- Barnyardgrass plant response rating (0-100) ([16]; 31 g ai/ha): 80
- Barnyardgrass plant response rating (0 to 100 scale) ([16]; 125 g ai/ha): 100
- Oat, Wild plant response rating (0-100) ([17]; 31 g ai/ha): 10
- Oat, Wild plant response rating (0 to 100 scale) ([17]; 125 g ai/ha): 80
- Ryegrass, Italian plant response rating (0-100) ([18]; 31 g ai/ha): 90
- Ryegrass, Italian plant response rating (0 to 100 scale) ([18]; 125 g ai/ha): 90
- Blackgrass plant response rating (0-100) ([19]; 31 g ai/ha): 20
- Blackgrass plant response rating (0 to 100 scale) ([19]; 125 g ai/ha): 70
- Amaranth, Palmer plant response rating (0-100) ([20]; 31 g ai/ha): 70
- Amaranth, Palmer plant response rating (0 to 100 scale) ([20]; 125 g ai/ha): 100
- Corn plant response rating (0-100) (corn (Zea mays) [21]; 31 g ai/ha): 20
- Corn plant response rating (0 to 100 scale) (corn (Zea mays) [21]; 125 g ai/ha): 80
- Ragweed plant response rating (0-100) ([22]; 31 g ai/ha): 20
- Ragweed plant response rating (0 to 100 scale) ([22]; 125 g ai/ha): 40
- Foxtail, Green plant response rating (0-100) ([23]; 31 g ai/ha): 50
- Foxtail, Green plant response rating (0 to 100 scale) ([23]; 125 g ai/ha): 100
- Soybean plant response rating (0-100) (soybean (Glycine max) [24]; 31 g ai/ha): 0
- Soybean plant response rating (0 to 100 scale) (soybean (Glycine max) [24]; 125 g ai/ha): 80
- Plant response rating, Sedge, Umbrella (0 to 100 scale, 0 is no effect and 100 is complete control) [25]: 60
- Plant response rating, Ducksalad (0 to 100 scale, 0 is no effect and 100 is complete control) [26]: 70
- Plant response rating, Barnyardgrass (0 to 100 scale, 0 is no effect and 100 is complete control) [27]: 70
- Plant response rating, Rice (0 to 100 scale, 0 is no effect and 100 is complete control) (rice (Oryza sativa)): 10
